{
  "source": "patent US11298363B2",
  "about": "“Triazolobenzazepines as vasopressin V1a receptor antagonists” (RICHTER GEDEON NYRT., priority 2017, dated 2022)",
  "data": [
    {"target": "mouse vasopressin V1a receptor (Mus musculus, UniProt Q62463)", "sequence (Q62463 whole entry)": "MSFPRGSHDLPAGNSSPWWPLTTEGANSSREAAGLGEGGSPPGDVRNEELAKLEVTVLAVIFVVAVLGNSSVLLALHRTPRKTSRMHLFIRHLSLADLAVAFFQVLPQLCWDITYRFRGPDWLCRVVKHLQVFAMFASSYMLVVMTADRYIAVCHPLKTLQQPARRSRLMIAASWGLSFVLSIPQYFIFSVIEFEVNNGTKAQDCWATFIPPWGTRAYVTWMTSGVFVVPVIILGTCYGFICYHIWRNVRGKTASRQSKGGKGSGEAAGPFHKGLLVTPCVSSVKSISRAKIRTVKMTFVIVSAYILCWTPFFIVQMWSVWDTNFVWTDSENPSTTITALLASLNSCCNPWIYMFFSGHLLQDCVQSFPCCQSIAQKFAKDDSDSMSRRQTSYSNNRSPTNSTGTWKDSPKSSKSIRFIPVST", "experiment": "Mouse vasopressin V1a receptor binding assay", "details": "1321N1 cell membranes; read-out: Ki (nM) on mV1a cell line", "source_text": "Mouse Vasopressin V1a Receptor Binding Assay Cells and Radioligand\nThe immortalized 1321N1 cell line (B9/1321N1 clone) constitutively and stably expressing Mouse vasopressin V1a receptor vasopressin (8-L-Arginine), [Phenylalanyl-3,4,5-^3H(N)] labelled compound (Perkin Elmer Life and Analytical Sciences) as radioligand were used to determine the affinity of the prepared compounds.\nMembrane-preparation: Membrane preparation of immortalized 1321N1 cells expressing the propagated mouse Vasopressin V1a receptor was made according to Jarvis's method (Jarvis et al., J Pharmacol Exp Ther […], 310:407-16). Cells were suspended in preparative buffer (50 mM Tris, 1 mM EDTA, 0.1 mM PMSF) and homogenized with glass homogenizing potter. To separate the raw membrane fraction two consecutive centrifugation procedures (40,000 g for 25 minutes at 4° C.) were executed, then the membrane was taken into the preparatory buffer during a final washing step, it was divided into aliquots which were stored at −80° C. until the time of measurement.\nThe protein content of the prepared membrane was determined according to Lowry's method using standard dilution line of bovine serum albumin (BSA) (Lowry et al., J Biol Chem 1951, 193:265-75).\nTo determine the final affinity value, the results of at least two independent experiments were taken into account.\nNon-specific binding values were determined in the presence of an unlabeled 1.2×10^−6 M (Arg^8)-vasopressin. Samples were incubated in a total volume of 0.33 ml for 60 minutes at 27° C. Membrane-bound and free ligands were separated by filtration through a 0.5% polyethyleneimine-impregnated UniFilter® GF/B™ After drying the filter plates, 40 μl Microscint-20 (Packard) scintillation cocktail was added to the samples. Finally, radioactivity was measured using MicroBeta^2 Microplate Counter (Perkin Elmer).\nThe radioligand clamping ability of a substance is determined in at least two independent experiments. Specific radioligand binding can be defined as the difference between total and non-specific binding in the presence of a saturation amount of the unlabeled ligand or different concentrations of the substance to be tested. The results are given as a percentage of inhibition of the specific binding achieved in the presence of the substance to be tested.\nThe IC50 data (i.e. the concentration of the unknown substance which displaces 50% of specific bound radioligand) is calculated from the concentration-displacement curve using the sigmoid fitting mathematical method y=(A1−A2)/(1+(x/x0)p)+A2 with Origin 7.5. software (OriginLab Corporation, Northampton, USA). During fitting, the asymptotes are not fixed. The Ki values (inhibition constant) are given with Cheng-Prusoff equation Ki=IC50/[1+(L/KD)] wherein [L] is the radioligand concentration used in the experiment and [KD] is the affinity of the radioactively labelled ligand for the given receptor. The KD is determined beforehand using the Scatchard curve.", "units": {"Ki": "nM"}, "values": [
      {"smiles": "N[C@@H]1Cc2cc(Cl)ccc2-n2c(nnc2[C@H]2CC[C@H](Oc3ccccn3)CC2)C1", "note": "[Example 8, (5R)-8-chloro-1-[trans-4-(pyridin-2-yloxy)cyclohexyl]-5,6-dihydro-4H-[1,2,4]triazolo[4,3-a][1]benzazepine-5-amine]", "Ki": 161},
      {"smiles": "CC(=O)NC1Cc2cc(Cl)ccc2-n2c(nnc2[C@H]2CC[C@H](Oc3ccccn3)CC2)C1", "note": "(stereo partly drawn) [Example 9, N-{8-chloro-1-[trans-4-(pyridin-2-yloxy)cyclohexyl]-5,6-dihydro-4H-[1,2,4]triazolo[4,3-a][1]benzazepin-5-yl}acetamide]", "Ki": 31},
      {"smiles": "O=C1Cc2cc(Cl)ccc2-n2c(nnc2[C@H]2CC[C@H](Oc3ccccn3)CC2)C1", "note": "[Example 54, 8-chloro-1-[trans-4-(pyrin-2-yloxy)cyclohexyl]-4H-[1,2,4]triazolo[4,3-a][1]benzazepin-5(6H)-one]", "Ki": 43},
      {"smiles": "OC1Cc2cc(Cl)ccc2-n2c(nnc2[C@H]2CC[C@H](Oc3ccccn3)CC2)C1", "note": "(stereo partly drawn) [Example 55, 8-chloro-1-[trans-4-(pyridin-2-yloxy)cyclohexyl]-5,6-dihydro-4H-[1,2,4]triazolo[4,3-a][1]benzazepin-5-ol]", "Ki": 21},
      {"smiles": "O[C@@H]1Cc2cc(Cl)ccc2-n2c(nnc2[C@H]2CC[C@H](Oc3ccccn3)CC2)C1", "note": "[Example 57, (5R)-8-chloro-1-[trans-4-(pyridin-2-yloxy)cyclohexyl]-5,6-dihydro-4H-[1,2,4]triazolo[4,3-a][1]benzazepin-5-ol]", "Ki": 12},
      {"smiles": "Brc1ccc2c(c1)CC1(Cc3nnc([C@H]4CC[C@H](Oc5ccccn5)CC4)n3-2)OCCO1", "note": "[Example 62, 8′-bromo-1′-[trans-4-(pyridin-2-yloxy)cyclohexyl]-4′H,6′H-spiro[1,3-dioxolane-2,5′ [1,2,4]triazolo[4,3-a][1]benzazepine]]", "Ki": 0.6},
      {"smiles": "c1ccc(O[C@H]2CC[C@H](c3nnc4n3-c3ccccc3CC3(C4)OCCO3)CC2)nc1", "note": "[Example 63, 1′-[trans-4-(pyridin-2-yloxy)cyclohexyl]-4′H,6′H-spiro[1,3-dioxolane-2,5′-[1,2,4]triazolo[4,3-a][1]benzazepine]]", "Ki": 13}
    ]}
  ]
}
